# Test results published in ChEMBL document CHEMBL4507260 (2021).
# Columns and labels:
# Conditions in all cases: Compound concentration 1000.0 nM
# [1] = biological target: Mitogen-activated protein kinase 9 (Homo sapiens) (UniProt P45984)
# [2] = biological target: Platelet-derived growth factor receptor beta (Homo sapiens) (UniProt P09619)
# [3] = biological target: Serine/threonine-protein kinase pim-1 (Homo sapiens) (UniProt P11309)
# [4] = biological target: Microtubule-associated serine/threonine-protein kinase 1 (Homo sapiens) (UniProt Q9Y2H9)
# [5] = biological target: Mitogen-activated protein kinase 12 (Homo sapiens) (UniProt P53778)
# [6] = biological target: SRSF protein kinase 1 (Homo sapiens) (UniProt Q96SB4)
# [7] = biological target: Serine/threonine-protein kinase RIO1 (Homo sapiens) (UniProt Q9BRS2)
# Serine/threonine-protein kinase RIO1 (Homo sapiens), sequence (Q9BRS2 whole entry, canonical isoform): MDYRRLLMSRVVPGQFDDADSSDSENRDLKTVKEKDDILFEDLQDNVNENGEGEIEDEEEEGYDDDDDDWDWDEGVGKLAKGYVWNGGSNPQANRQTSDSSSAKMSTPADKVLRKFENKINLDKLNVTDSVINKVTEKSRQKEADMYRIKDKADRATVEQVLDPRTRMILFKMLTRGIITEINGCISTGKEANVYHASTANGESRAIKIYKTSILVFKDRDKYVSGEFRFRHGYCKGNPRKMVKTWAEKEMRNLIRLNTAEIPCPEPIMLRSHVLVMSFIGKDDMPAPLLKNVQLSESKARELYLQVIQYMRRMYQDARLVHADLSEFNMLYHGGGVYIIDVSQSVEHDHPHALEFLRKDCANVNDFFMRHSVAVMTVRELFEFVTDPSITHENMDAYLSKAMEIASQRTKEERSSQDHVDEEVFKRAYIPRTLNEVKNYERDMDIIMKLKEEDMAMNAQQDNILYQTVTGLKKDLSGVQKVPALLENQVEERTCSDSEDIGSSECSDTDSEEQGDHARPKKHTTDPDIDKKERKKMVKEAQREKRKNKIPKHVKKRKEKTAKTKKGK
# [8] = biological target: Casein kinase I isoform alpha-like (Homo sapiens) (UniProt Q8N752)
# [9] = biological target: Serine/threonine-protein kinase ICK (Homo sapiens) (UniProt Q9UPZ9)
# [10] = biological target: Cyclin-dependent kinase 14 (Homo sapiens) (UniProt O94921)
# Cyclin-dependent kinase 14 (Homo sapiens), sequence (O94921 whole entry): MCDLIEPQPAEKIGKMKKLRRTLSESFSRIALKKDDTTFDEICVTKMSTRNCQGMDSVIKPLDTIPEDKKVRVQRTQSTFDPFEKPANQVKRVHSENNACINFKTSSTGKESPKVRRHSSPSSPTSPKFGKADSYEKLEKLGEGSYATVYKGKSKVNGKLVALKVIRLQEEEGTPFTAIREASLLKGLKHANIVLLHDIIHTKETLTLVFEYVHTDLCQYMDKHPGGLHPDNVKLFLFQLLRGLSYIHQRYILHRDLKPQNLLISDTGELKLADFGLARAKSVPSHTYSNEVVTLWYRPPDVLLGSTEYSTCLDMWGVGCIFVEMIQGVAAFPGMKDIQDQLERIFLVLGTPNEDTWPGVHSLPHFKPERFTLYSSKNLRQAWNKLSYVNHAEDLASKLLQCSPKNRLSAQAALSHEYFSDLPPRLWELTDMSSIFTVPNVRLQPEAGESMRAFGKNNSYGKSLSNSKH
# [11] = test system: Hepatocyte growth factor receptor (Homo sapiens), P08581 [Y1235D]
# [12] = biological target: Phosphatidylinositol 4,5-bisphosphate 3-kinase catalytic subunit delta isoform (Homo sapiens) (UniProt O00329)
# [13] = biological target: Tyrosine-protein kinase ABL1 (Homo sapiens) (UniProt P00519)
# [14] = biological target: Cyclin-dependent kinase-like 1 (Homo sapiens) (UniProt Q00532)
# [15] = biological target: Tyrosine-protein kinase Fes/Fps (Homo sapiens) (UniProt P07332)
# [16] = biological target: Ephrin type-A receptor 1 (Homo sapiens) (UniProt P21709)
# [17] = biological target: Transient receptor potential cation channel subfamily M member 6 (Homo sapiens) (UniProt Q9BX84)
# [18] = biological target: Mitogen-activated protein kinase kinase kinase kinase 2 (Homo sapiens) (UniProt Q12851)
# [19] = biological target: Maternal embryonic leucine zipper kinase (Homo sapiens) (UniProt Q14680)
# [20] = biological target: Serine/threonine-protein kinase WNK1 (Homo sapiens) (UniProt Q9H4A3)
# [21] = biological target: LIM domain kinase 2 (Homo sapiens) (UniProt P53671)
# LIM domain kinase 2 (Homo sapiens), sequence (P53671 whole entry, looked up, the tested form may be a part): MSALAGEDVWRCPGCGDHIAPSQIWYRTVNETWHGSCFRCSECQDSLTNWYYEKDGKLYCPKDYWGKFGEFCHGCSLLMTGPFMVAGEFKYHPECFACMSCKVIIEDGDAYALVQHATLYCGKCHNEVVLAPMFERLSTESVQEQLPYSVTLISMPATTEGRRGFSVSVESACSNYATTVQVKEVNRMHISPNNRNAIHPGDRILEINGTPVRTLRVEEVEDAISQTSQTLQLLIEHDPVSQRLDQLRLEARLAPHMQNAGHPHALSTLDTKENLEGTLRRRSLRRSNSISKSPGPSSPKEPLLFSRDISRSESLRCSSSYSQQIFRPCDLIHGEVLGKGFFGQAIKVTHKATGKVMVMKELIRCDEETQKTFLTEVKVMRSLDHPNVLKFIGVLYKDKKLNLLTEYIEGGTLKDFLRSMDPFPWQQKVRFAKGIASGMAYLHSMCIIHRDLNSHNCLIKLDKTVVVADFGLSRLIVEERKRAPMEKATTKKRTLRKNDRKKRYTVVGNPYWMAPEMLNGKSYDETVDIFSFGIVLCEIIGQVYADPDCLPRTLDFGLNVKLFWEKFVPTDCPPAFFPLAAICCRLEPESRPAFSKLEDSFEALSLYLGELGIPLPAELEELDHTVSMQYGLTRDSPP
# [22] = biological target: Calcium/calmodulin-dependent protein kinase type 1B (Homo sapiens) (UniProt Q6P2M8)
# [23] = biological target: Cyclin-dependent kinase 18 (Homo sapiens) (UniProt Q07002)
# [24] = biological target: Mitogen-activated protein kinase kinase kinase 7 (Homo sapiens) (UniProt O43318)
# [25] = test system: Tyrosine-protein kinase ABL1 (Homo sapiens), P00519 [Q252H]
# [26] = biological target: Mitogen-activated protein kinase kinase kinase 10 (Homo sapiens) (UniProt Q02779)
# Mitogen-activated protein kinase kinase kinase 10 (Homo sapiens), sequence (Q02779 whole entry, looked up): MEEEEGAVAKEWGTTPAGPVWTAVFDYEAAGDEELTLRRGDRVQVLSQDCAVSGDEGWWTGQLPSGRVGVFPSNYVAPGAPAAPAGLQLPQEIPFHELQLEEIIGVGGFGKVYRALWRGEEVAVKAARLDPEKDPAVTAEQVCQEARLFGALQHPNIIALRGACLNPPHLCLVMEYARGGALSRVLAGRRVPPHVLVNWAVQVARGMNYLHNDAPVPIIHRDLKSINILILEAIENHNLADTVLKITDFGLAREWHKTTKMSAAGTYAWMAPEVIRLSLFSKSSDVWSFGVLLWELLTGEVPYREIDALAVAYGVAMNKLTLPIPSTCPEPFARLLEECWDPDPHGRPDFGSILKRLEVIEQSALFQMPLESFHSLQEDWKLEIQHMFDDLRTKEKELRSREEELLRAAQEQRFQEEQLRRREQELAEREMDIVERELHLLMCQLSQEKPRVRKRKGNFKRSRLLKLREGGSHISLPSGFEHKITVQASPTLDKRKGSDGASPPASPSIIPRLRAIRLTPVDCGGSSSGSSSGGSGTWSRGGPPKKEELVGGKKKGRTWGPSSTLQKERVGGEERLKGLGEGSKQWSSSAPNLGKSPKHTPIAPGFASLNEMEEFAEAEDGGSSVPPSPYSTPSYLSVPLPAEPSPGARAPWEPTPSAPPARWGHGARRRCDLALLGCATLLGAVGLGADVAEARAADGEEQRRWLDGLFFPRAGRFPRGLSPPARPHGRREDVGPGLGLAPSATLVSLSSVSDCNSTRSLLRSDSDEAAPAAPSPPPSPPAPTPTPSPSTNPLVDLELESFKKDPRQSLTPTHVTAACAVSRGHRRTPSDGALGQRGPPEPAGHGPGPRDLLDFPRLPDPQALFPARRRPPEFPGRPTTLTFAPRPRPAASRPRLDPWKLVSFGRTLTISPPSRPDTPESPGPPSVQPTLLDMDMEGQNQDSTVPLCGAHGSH
# [27] = biological target: Tyrosine-protein kinase ZAP-70 (Homo sapiens) (UniProt P43403)
# [28] = biological target: Calcium/calmodulin-dependent protein kinase kinase 1 (Homo sapiens) (UniProt Q8N5S9)
# [29] = biological target: Mitogen-activated protein kinase 14 (Homo sapiens) (UniProt Q16539)
# [30] = biological target: Cyclin-dependent kinase 11B (Homo sapiens) (UniProt P21127)
# [31] = biological target: Mitogen-activated protein kinase kinase kinase 4 (Homo sapiens) (UniProt Q9Y6R4)
# [32] = biological target: 1-phosphatidylinositol 3-phosphate 5-kinase (Homo sapiens) (UniProt Q9Y2I7)
# [33] = biological target: Phosphorylase b kinase gamma catalytic chain, skeletal muscle/heart isoform (Homo sapiens) (UniProt Q16816)
# [34] = biological target: Receptor-interacting serine/threonine-protein kinase 1 (Homo sapiens) (UniProt Q13546)
# [35] = biological target: 5'-AMP-activated protein kinase catalytic subunit alpha-2 (Homo sapiens) (UniProt P54646)
# [36] = biological target: Phosphatidylinositol 4-kinase beta (Homo sapiens) (UniProt Q9UBF8)
# [37] = biological target: Phosphatidylinositol 4-phosphate 5-kinase type-1 alpha (Homo sapiens) (UniProt Q99755)
# Phosphatidylinositol 4-phosphate 5-kinase type-1 alpha (Homo sapiens), sequence (Q99755 whole entry): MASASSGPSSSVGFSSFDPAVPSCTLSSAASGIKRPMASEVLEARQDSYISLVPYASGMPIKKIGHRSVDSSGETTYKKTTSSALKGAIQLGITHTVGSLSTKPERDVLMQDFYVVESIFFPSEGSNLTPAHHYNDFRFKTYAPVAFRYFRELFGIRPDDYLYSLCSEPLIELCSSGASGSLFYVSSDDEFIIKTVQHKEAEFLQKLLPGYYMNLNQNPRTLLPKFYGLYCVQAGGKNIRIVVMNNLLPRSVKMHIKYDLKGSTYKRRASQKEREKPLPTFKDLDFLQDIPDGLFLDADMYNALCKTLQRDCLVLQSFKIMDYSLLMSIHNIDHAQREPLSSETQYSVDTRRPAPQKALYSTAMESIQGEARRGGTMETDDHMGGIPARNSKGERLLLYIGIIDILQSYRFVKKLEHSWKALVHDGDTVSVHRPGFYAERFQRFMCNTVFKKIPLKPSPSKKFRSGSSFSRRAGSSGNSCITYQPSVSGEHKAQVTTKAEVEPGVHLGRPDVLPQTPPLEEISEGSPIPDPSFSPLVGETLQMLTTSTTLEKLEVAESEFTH
# [38] = biological target: cAMP-dependent protein kinase catalytic subunit alpha (Homo sapiens) (UniProt P17612)
# [39] = biological target: Vascular endothelial growth factor receptor 1 (Homo sapiens) (UniProt P17948)
# [40] = biological target: Cyclin-dependent kinase 17 (Homo sapiens) (UniProt Q00537)
# [41] = biological target: Casein kinase I isoform gamma-3 (Homo sapiens) (UniProt Q9Y6M4)
# [42] = biological target: Serine/threonine-protein kinase RIO3 (Homo sapiens) (UniProt O14730)
# [43] = test system: Phosphatidylinositol 4,5-bisphosphate 3-kinase catalytic subunit alpha isoform (Homo sapiens), P42336 [E545A]
# [44] = biological target: Tyrosine-protein kinase Srms (Homo sapiens) (UniProt Q9H3Y6)
# [45] = test system: Tyrosine-protein kinase ABL1 (Homo sapiens), P00519 [H396P]
# Mitogen-activated protein kinase 9 (Homo sapiens), sequence (P45984 whole entry, looked up): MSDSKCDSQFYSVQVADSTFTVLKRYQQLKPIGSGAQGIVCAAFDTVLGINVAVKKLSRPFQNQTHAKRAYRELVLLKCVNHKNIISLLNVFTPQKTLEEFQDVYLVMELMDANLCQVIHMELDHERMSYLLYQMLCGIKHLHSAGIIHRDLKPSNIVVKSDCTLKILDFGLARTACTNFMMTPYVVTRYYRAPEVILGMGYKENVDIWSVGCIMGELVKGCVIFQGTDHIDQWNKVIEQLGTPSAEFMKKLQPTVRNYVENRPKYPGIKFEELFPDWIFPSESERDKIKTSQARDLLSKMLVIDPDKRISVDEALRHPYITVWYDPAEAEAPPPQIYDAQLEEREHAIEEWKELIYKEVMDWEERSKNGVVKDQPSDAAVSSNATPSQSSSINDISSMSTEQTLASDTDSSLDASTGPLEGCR
# Platelet-derived growth factor receptor beta (Homo sapiens), sequence (P09619 whole entry): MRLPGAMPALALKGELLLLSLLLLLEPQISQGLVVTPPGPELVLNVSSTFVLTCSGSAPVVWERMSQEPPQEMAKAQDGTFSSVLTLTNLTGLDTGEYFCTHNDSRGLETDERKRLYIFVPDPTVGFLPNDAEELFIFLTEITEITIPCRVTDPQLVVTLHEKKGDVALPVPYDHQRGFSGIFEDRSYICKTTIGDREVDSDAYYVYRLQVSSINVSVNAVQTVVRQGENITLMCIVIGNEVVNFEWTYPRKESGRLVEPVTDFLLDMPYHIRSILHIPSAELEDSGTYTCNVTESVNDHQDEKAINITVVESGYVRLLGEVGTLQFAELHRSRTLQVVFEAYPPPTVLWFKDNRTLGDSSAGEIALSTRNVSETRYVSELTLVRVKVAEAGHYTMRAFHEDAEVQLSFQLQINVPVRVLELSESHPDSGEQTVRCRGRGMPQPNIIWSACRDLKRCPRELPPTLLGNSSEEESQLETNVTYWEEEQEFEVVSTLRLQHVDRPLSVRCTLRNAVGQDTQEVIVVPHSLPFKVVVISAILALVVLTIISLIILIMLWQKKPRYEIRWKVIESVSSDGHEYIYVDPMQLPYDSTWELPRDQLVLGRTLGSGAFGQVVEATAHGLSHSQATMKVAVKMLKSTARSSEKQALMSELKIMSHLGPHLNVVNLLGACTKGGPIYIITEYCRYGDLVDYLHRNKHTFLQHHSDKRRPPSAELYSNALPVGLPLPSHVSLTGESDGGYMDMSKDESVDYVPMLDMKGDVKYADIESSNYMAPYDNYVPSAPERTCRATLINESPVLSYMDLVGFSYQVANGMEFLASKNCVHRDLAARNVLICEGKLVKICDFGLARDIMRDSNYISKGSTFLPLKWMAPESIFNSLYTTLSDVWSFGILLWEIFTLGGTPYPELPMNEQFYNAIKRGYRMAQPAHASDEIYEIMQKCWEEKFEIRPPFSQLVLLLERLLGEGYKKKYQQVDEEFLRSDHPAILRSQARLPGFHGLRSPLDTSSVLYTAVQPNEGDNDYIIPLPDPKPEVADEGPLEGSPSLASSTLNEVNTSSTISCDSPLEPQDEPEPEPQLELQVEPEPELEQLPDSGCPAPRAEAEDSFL
# Serine/threonine-protein kinase pim-1 (Homo sapiens), sequence (P11309 whole entry, looked up): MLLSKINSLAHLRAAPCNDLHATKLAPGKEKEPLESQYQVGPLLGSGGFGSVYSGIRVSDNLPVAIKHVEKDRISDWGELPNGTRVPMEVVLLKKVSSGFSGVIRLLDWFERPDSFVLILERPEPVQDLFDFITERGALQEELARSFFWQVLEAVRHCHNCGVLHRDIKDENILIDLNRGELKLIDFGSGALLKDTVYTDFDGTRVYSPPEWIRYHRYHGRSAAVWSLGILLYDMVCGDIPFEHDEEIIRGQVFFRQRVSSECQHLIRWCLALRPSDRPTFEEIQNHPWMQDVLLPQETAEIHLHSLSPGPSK
structure (smiles),measurement,setting,value
c1ccc(N2CCN(Cc3nc4ccccc4[nH]3)CC2)nc1 [ABT-724],residual activity,[1],100%
same,residual activity,[2],100%
same,residual activity,[3],90%
same,residual activity,[4],65%
same,residual activity,[5],74%
same,residual activity,[6],100%
same,residual activity,[7],86%
same,residual activity,[8],100%
same,residual activity,[9],100%
same,residual activity,[10],100%
same,residual activity,[11],100%
same,residual activity,[12],69%
same,residual activity,[13],100%
same,residual activity,[14],78%
same,residual activity,[15],100%
same,residual activity,[16],100%
same,residual activity,[17],100%
same,residual activity,[18],100%
same,residual activity,[19],100%
same,residual activity,[20],100%
same,residual activity,[21],100%
same,residual activity,[22],0%
same,residual activity,[23],94%
same,residual activity,[24],52%
same,residual activity,[25],100%
same,residual activity,[26],93%
same,residual activity,[27],100%
same,residual activity,[28],98%
same,residual activity,[29],89%
same,residual activity,[30],100%
same,residual activity,[31],100%
same,residual activity,[32],100%
same,residual activity,[33],100%
same,residual activity,[34],100%
same,residual activity,[35],100%
same,residual activity,[36],100%
same,residual activity,[37],79%
same,residual activity,[38],91%
same,residual activity,[39],100%
same,residual activity,[40],100%
same,residual activity,[41],100%
same,residual activity,[42],100%
same,residual activity,[43],87%
same,residual activity,[44],94%
same,residual activity,[45],100%
CSc1cccnc1N1CCN(Cc2nc3ccccc3[nH]2)CC1 [A-769],residual activity,[1],68%
same,residual activity,[2],100%
same,residual activity,[3],100%
same,residual activity,[4],100%
same,residual activity,[5],98%
same,residual activity,[6],100%
same,residual activity,[7],100%
same,residual activity,[8],100%
same,residual activity,[9],68%
same,residual activity,[10],100%
same,residual activity,[11],89%
same,residual activity,[12],100%
same,residual activity,[13],78%
same,residual activity,[14],100%
same,residual activity,[15],98%
same,residual activity,[16],100%
same,residual activity,[17],100%
same,residual activity,[18],100%
same,residual activity,[19],46%
same,residual activity,[20],100%
same,residual activity,[21],100%
same,residual activity,[22],100%
same,residual activity,[23],100%
same,residual activity,[24],74%
same,residual activity,[25],71%
same,residual activity,[26],100%
same,residual activity,[27],99%
same,residual activity,[28],100%
same,residual activity,[29],100%
same,residual activity,[30],100%
same,residual activity,[31],100%
same,residual activity,[32],100%
same,residual activity,[33],96%
same,residual activity,[34],100%
same,residual activity,[35],100%
same,residual activity,[36],73%
same,residual activity,[37],96%
same,residual activity,[38],92%
same,residual activity,[39],100%
same,residual activity,[40],100%
same,residual activity,[41],86%
same,residual activity,[42],100%
same,residual activity,[43],96%
same,residual activity,[44],100%
same,residual activity,[45],77%
